Legend:
MCF-7 cell line = test system: MCF-7 cell line; design: method as in PMID 32757353; settings: read-out: IC50 against MCF-7 cell line; cited from earlier work
[1] = test system: colon carcinoma (HCT-116); assay: MTT cytotoxicity assay, HCT-116; assay type: cell-based; settings: 24 h treatment, mean of three experiments
Procedure: (§1) The effect of imidazole molecules 4a–e and 5 on the viability of three cancer cell lines were studied using the MTT assay. The cytotoxicity was assessed using Docetaxel (DOC) as a standard antitumor drug. The three cancer cell lines were MCF-7 (breast cancer cell line), colon carcinoma (HCT-116), and HepG2 (hepatocellular carcinoma cell line). […] Moreover, the safety of compounds 4d and 5 was assessed against a normal breast cell line (MCF-10A) using the MTT assay.
(§2) Antitumor activity of the newly prepared imidazole compounds 4a–e and 5 were carried out against MCF-7, HepG2, HCT-116, and MCF-10A using the MTT assay method. Cells at a density of 1 × 10^4 were seeded in 96-well plates at 37 °C for 48 h under 5% CO2. After incubation, the cells were treated with different concentrations of the prepared molecules and incubated for 24 h. MTT dye was added at the end of 24 h of drug treatment and incubated for 4 h at 37 °C. Next, 100 µL of dimethyl sulfoxide was added to each well to dissolve the purple formazan formed. The color intensity of the formazan product, which represents the growth condition of the cells, is quantified using an ELISA plate reader at 570 nm. The experimental conditions were carried out with at least three replicates and the experiments were repeated at least three times.

[2] = test system: MCF-7 (breast cancer cell line); assay: MTT cytotoxicity assay, MCF-7; assay type: cell-based; settings: Homo sapiens, MCF7, 24 h, 24 h treatment, mean of three experiments
Procedure: as §1, §2

[3] = test system: normal breast cell line (MCF-10A); assay: MTT cytotoxicity assay, normal breast cell line MCF-10A; assay type: cell-based; settings: for IC50: Homo sapiens, MCF-10A, 24 h treatment
Procedure: as §1, §2

B-Raf^V600E = target: T1, B-Raf^V600E (Homo sapiens, UniProt P15056, V600E); assay: In vitro B-Raf kinase assay (ELISA); assay type: biochemical; settings: n = 3, read-out: IC50 against B-Raf^V600E (converted)
T1 construct: purchased
T1 sequence (P15056 whole entry V600E): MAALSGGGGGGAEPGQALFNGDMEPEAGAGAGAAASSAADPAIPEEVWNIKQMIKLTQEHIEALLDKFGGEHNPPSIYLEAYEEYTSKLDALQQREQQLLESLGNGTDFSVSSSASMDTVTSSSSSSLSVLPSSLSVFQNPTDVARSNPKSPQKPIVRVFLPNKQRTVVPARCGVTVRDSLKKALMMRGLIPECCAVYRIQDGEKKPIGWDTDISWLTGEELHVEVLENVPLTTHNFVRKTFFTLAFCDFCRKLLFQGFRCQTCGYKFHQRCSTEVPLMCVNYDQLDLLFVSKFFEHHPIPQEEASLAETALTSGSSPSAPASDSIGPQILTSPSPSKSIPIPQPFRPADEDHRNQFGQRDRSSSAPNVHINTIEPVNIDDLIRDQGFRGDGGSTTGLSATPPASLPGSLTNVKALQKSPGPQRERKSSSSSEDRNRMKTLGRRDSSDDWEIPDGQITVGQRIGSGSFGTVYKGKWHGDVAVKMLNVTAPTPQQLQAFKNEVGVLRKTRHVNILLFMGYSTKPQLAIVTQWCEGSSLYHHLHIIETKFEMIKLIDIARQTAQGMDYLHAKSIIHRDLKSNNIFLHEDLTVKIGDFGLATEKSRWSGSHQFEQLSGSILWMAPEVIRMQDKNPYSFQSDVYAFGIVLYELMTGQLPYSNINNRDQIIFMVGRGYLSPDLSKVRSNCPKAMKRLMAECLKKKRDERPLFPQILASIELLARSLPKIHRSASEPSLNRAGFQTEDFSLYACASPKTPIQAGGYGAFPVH
Procedure: Raf is a protein kinase that initiates a cascade of other protein kinases by acting on the protein kinases MEK-1 and MEK-2 [21].
(§3) Next, 100 µL of standard solution and tested molecules were pipetted into the 96-wells and B-RAF was bound to the wells by the immobilized antibody. The wells were washed and biotinylated antihuman B-Raf antibody was added. After washing away unbound biotinylated antibody, 100 µL of conjugated streptavidin solution was pipetted into the wells. After washing, 100 µL of TMB substrate solution was added to the wells for 30 min at 37 °C. Stop solution (50 µL) was added, and the intensity of the color is measured immediately at 450 nm.

[4] = test system: HepG2 (hepatocellular carcinoma cell line); assay: MTT cytotoxicity assay, HepG2; assay type: cell-based; settings: Homo sapiens, HepG2, 24 h, 24 h treatment, mean of three experiments
Procedure: as §1, §2

MCF-7 cells [5] = assay: Annexin V-FITC/PI apoptosis induction analysis; assay type: cell-based; settings: MCF-7, compound at its IC50, 48 h; for percent of early apoptosis: lower right quadrant, control 0.43%; for percent of late apoptosis: upper right quadrant, control 0.23%
Procedure: Several imidazole molecules have been reported in the literature as apoptosis inducers in several tumor cell lines. To evaluate the mode of cell death induced by compounds 4d and 5, Annexin V/FITC and propidium iodide (PI) assays were performed. MCF-7 cells were treated with compounds 4d and 5 at their IC50 concentration dose value for 48 h.
Apoptosis in MCF-7 cells was investigated using fluorescent Annexin V-FITC/PI detection kit by flow cytometry assay. Briefly, MCF-7 cells (2 × 10^5) after incubation for 12 h. Cells were treated with compounds 4d and 5 at their IC50 concentration for 48 h, then the cells were harvested and stained with Annexin V-FITC/PI dye for 15 min in the dark at 37 °C. Flow cytometry analyses were performed using a FACS Calibur flow cytometer (Becton and Dickinson, Heidelberg, Germany).

human VEGFR-2 = target: T2, human VEGFR-2 (Homo sapiens, UniProt P35968); assay: In vitro VEGFR-2 kinase assay (ELISA); assay type: biochemical; settings: n = 3, read-out: IC50 against VEGFR-2 kinase (converted)
T2 construct: purchased
T2 sequence (P35968 20-1356): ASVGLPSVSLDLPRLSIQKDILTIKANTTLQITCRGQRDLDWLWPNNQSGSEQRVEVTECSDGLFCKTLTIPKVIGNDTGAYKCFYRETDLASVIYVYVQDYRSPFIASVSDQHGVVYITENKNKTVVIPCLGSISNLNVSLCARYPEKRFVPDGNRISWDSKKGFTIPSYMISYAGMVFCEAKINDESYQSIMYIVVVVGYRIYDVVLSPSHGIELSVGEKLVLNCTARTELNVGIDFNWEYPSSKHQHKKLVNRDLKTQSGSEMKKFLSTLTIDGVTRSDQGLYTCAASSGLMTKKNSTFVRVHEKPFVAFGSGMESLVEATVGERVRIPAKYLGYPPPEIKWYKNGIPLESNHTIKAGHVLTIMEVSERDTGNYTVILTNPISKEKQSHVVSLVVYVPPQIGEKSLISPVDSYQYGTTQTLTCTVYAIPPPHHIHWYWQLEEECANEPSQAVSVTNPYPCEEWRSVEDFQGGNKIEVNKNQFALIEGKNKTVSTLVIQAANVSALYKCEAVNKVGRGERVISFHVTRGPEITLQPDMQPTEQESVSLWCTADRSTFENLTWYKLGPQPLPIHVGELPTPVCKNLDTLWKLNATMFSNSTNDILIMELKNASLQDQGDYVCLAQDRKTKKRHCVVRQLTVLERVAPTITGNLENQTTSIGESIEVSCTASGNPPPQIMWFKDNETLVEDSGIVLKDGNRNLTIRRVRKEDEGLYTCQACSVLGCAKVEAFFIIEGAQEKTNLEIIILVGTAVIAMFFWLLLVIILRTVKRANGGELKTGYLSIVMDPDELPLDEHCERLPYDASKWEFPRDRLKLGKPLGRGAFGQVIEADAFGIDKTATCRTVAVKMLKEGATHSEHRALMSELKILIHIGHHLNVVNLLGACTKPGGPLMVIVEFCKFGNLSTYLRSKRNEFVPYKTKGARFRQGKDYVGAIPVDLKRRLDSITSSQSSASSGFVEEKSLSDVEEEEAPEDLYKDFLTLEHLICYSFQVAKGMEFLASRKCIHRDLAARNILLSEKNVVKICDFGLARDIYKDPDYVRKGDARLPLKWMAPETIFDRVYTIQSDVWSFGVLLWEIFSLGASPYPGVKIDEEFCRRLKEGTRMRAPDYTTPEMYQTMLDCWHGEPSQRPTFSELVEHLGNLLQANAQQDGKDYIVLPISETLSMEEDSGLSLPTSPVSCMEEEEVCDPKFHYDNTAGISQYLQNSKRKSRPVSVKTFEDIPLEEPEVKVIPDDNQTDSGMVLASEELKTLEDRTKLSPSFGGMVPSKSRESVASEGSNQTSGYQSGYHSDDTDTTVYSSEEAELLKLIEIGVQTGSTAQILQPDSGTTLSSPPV
Procedure: To investigate the possible molecular mechanism underlying the potent anticancer activity of compounds 4d and 5. Their inhibitory activity against VEGFR-2 kinase was determined using an ELISA assay.
as §3, with “A total of” for “Next,”, “VEGFR-2” for “B-RAF”, “VEGFR-2” for “B-Raf”, “was” for “is”

MCF-7 cells [6] = assay: Cell cycle analysis by DNA flow cytometry; assay type: cell-based; settings: MCF-7, compound at its IC50, 48 h; for percentage of cells at pre-G1 phase: control 1.61%; for percentage of cell population at the G2/M phase: control 8.79%
Procedure: Therefore, it can be concluded that compounds 4d and 5 inhibit the cell proliferation of MCF-7 cells via cell cycle arrest at the G2/M phase and induction of apoptosis (Figure 2).
MCF-7 cells (2 × 10^5/well) were harvested and washed twice in PBS. After that, cells were incubated at 37 °C and 5% CO2. The medium was replaced with DMSO (1% v/v) containing the tested compounds, then incubated for 48 h, washed twice in PBS, fixed with 70% ethanol, rinsed again with PBS, and then stained with DNA fluorochrome PI for 15 min at 37 °C. DNA content was analyzed by flow cytometry on a FACS Calibur flow cytometer (Becton and Dickinson, Heidelberg, Germany).

| Structure (SMILES) | melting point [°C] | IC50 ([1]; Homo sapiens, HCT-116, 24 h) [µM] | IC50 [2] [µM] | IC50 [3] [µM] | IC50 [4] [µM] | further results |
| --- | --- | --- | --- | --- | --- | --- |
| CCOC(=O)/C(C#N)=C(\c1ccc(O)cc1)n1cc(O)n(/N=C/C=C/c2ccccc2)c1=S [compound III] |  |  |  |  |  | IC50 (MCF-7 cell line): 3.26 µM |
| COc1ccc(/C=N/n2c(-c3ccc(Cl)cc3)c[nH]c2=S)cc1 [Compound 4d, (E)-5-(4-Chlorophenyl)-1-(4-methoxybenzylideneamino)-1H-imidazole-2(3H)-thione] |  | 28.9 ± 1.9 | 7.97 ± 0.5 | 44.06 ± 0.23 | 4.09 ± 0.3 | cytotoxic effect towards MCF-10A (in words) [3]: weak cytotoxic effect; IC50 (B-Raf^V600E): 38 µM; percent of early apoptosis (MCF-7 cells [5]): 6.12%; percent of late apoptosis (MCF-7 cells [5]): 10.23%; IC50 (human VEGFR-2): 0.721 µM; percentage of cells at pre-G1 phase (MCF-7 cells [6]): 22.36%; percentage of cell population at the G2/M phase (MCF-7 cells [6]): 35.55% |
| CC(=O)Oc1ccccc1/C=N/n1c(-c2ccc(Cl)cc2)cn(C(C)=O)c1=S [Compound 6, (E)-2-((3-Acetyl-5-(4-chlorophenyl)-2-thioxo-2,3-dihydro-1H-imidazol-1-ylimino)methyl)phenyl Acetate] | 115 to 117 |  |  |  |  |  |
| CNC(=O)c1cc(Oc2ccc(NC(=O)Nc3ccc(Cl)c(C(F)(F)F)c3)cc2)ccn1 [SOR] |  |  |  |  |  | IC50 (MCF-7 cell line): 1.12 µM |
| CC(=O)O[C@@]12CO[C@@H]1C[C@H](O)[C@@]1(C)C(=O)[C@H](O)C3=C(C)[C@@H](OC(=O)[C@H](O)[C@@H](NC(=O)OC(C)(C)C)c4ccccc4)C[C@@](O)([C@@H](OC(=O)c4ccccc4)[C@H]21)C3(C)C [DOC, Docetaxel, reference compound] |  | 14 ± 0.9 | 11.1 ± 0.7 | 33.17 ± 0.19 | 8.13 ± 0.5 |  |
| COc1ccc(-c2c[nH]c(=S)n2/N=C/c2ccccc2O)cc1 [Compound 5, (E)-1-(2-Hydroxybenzylideneamino)-5-(4-methoxyphenyl)-1H-imidazole-2(3H)-thione] |  | < 5 |  | 27.8 ± 0.31 |  | IC50 [1]: 3.99 ± 0.3 µM; cytotoxic effect towards MCF-10A (in words) [3]: weak cytotoxic effect; IC50 (B-Raf^V600E): 7.31 µM; percent of early apoptosis (MCF-7 cells [5]): 2.66%; percent of late apoptosis (MCF-7 cells [5]): 13.64%; IC50 (human VEGFR-2): 0.252 µM; percentage of cells at pre-G1 phase (MCF-7 cells [6]): 22.81%; percentage of cell population at the G2/M phase (MCF-7 cells [6]): 25.63% |

Second part, led by results:

| melting point [°C] | Structure (SMILES) | IC50 ([1]; Homo sapiens, HCT-116, 24 h) [µM] | IC50 [2] [µM] | IC50 [3] [µM] | IC50 [4] [µM] | further results |
| --- | --- | --- | --- | --- | --- | --- |
| 128 to 130 | Oc1ccccc1/C=N/n1c(-c2ccc(Cl)cc2)c[nH]c1=S [Compound 4b, (E)-5-(4-Chlorophenyl)-1-(2-hydroxybenzylideneamino)-1H-imidazole-2(3H)-thione] | 23.5 ± 1.6 | 24.9 ± 1.6 |  | > 50 |  |
| 191 to 193 | Oc1ccc(Br)cc1/C=N/n1c(-c2ccc(Cl)cc2)c[nH]c1=S [Compound 4c, (E)-1-(5-Bromo-2-hydroxybenzylideneamino)-5-(4-chlorophenyl)-1H-imidazole-2(3H)-thione] | 9.96 ± 0.7 | 44 ± 2.9 |  | 11.4 ± 0.8 |  |
| 121 to 123 | S=c1[nH]cc(-c2ccc(Cl)cc2)n1/N=C/c1ccccc1 [Compound 4a, (E)-1-(Benzylideneamino)-5-(4-chlorophenyl)-1H-imidazole-2(3H)-thione] | 20.6 ± 1.4 | > 50 |  | 61.8 ± 4.1 |  |
| 139 to 141 | S=c1[nH]cc(-c2ccc(Cl)cc2)n1/N=C/C=C/c1ccccc1 [Compound 4e, 5-(4-Chlorophenyl)-1-((E)-((E)-3-phenylallylidene)amino)-1H-imidazole-2(3H)-thione] | 3.99 ± 0.3 | 13.2 ± 0.9 |  | 17 ± 1.1 |  |

From paper PMC8003321, “5-Aryl-1-Arylideneamino-1H-Imidazole-2(3H)-Thiones: Synthesis and In Vitro Anticancer Evaluation” (Molecules, 2021)
